# From patent publication US20240116985A1, “STAPLED PEPTIDES AND METHODS THEREOF” (priority 2020, published 2024)
# How the values were obtained:
# [1] = molecular target: T1, full-length beta-Catenin (Uniprot ID P35222) (Homo sapiens, UniProt P35222); assay: Fluorescence polarization IC50 (beta-catenin / 5FAM-TCF4 10-53 competition); assay type: binding; settings: fluorescence polarization; read-out: beta-Catenin FP IC50
# T1 construct: 10 nM full-length beta-Catenin (Uniprot ID P35222)
# T1 sequence (P35222 1-781): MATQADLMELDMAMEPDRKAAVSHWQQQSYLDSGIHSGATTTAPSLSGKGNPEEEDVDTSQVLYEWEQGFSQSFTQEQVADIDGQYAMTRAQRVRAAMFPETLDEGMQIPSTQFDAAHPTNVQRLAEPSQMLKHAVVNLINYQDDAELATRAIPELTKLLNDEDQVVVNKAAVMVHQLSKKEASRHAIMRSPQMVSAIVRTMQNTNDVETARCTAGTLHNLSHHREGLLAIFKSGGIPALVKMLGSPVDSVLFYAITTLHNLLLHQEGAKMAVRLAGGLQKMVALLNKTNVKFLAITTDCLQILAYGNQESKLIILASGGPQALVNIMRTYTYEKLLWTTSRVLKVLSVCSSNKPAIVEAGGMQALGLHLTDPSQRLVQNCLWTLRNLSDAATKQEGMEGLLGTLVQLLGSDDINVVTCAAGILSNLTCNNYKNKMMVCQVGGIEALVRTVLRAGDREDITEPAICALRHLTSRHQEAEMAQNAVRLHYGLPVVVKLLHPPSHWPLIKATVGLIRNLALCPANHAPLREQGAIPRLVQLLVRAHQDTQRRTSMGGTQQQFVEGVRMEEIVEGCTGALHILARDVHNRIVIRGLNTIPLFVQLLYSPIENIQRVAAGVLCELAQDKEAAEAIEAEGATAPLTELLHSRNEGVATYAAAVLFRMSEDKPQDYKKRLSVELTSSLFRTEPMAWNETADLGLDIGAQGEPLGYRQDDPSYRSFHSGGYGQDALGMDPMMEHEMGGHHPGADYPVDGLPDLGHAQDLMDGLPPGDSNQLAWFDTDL
# [2] = molecular target: T2, beta-catenin/TCF4 engagement (Homo sapiens, UniProt P35222); assay: Nano-BRET target engagement assay (B-cat-Halo & TCF4-Luc in HEK293 cells); assay type: cell-based; settings: absolute IC50; read-out: NanoBRET Abs IC50
# T2 construct: expressed in transfected cells; host or cells: HEK293
# T2 sequence (P35222 1-781): T1 sequence (P35222 1-781)
smiles,measurement,setting,value
"CC(=O)N1CCC[C@]12CC=CCCCC1(CCCC=CCCCOC(=O)N3CC[C@@](C(=O)N[C@@H](Cc4ccccc4C(F)(F)F)C(=O)N[C@@H](Cc4csc5ccccc45)C(=O)N[C@@H](CCC(=O)N(C)C)C(N)=O)(C3)NC(=O)[C@H](CCC(=O)N(C)C)NC(=O)[C@H](Cc3ccccc3)NC(=O)[C@H](C)NC(=O)[C@H](C)NC(=O)[C@H](Cc3cccc(C(=O)O)c3)NC(=O)[C@H](CC(=O)O)NC1=O)NC(=O)[C@H](CC(C)(C)C)NC(=O)[C@H](CC(=O)O)NC2=O (stereo partly drawn) [I-2535, Ac-PL3-Asp-Npg-B5-Asp-3COOHF-Ala-Ala-Phe-Me2Gln-PyrS2-2F3MeF-BztA-Me2Gln-NH2]",IC50,[1],11 nM
same,IC50,[2],3700 nM
"CC(=O)N1CCC[C@]12CC=CCCCC1(CCCC=CCCCOC(=O)N3CC[C@@](C(=O)N[C@@H](Cc4ccsc4)C(=O)N[C@@H](Cc4ccc5ccccc5c4)C(=O)N[C@@H](CCC(N)=O)C(N)=O)(C3)NC(=O)[C@H](CC(C)C)NC(=O)[C@H](Cc3ccccc3)NC(=O)[C@H](C)NC(=O)[C@H](C)NC(=O)[C@H](Cc3cccc(C(=O)O)c3)NC(=O)[C@H](CC(=O)O)NC1=O)NC(=O)[C@H](CC(C)(C)C)NC(=O)[C@H](CC(=O)O)NC2=O (stereo partly drawn) [I-2309, Ac-PL3-Asp-Npg-B5-Asp-3COOHF-Ala-Ala-Phe-Leu-PyrS2-3Thi-2NapA-Gln-NH2]",IC50,[1],17 nM
same,IC50,[2],13700 nM
"CC(=O)N1CCC[C@]12CC=CCCCC1(CCCC=CCCCOC(=O)N3CC[C@@](C(=O)N[C@@H](Cc4ccsc4)C(=O)N[C@@H](Cc4csc5ccccc45)C(=O)N[C@@H](CCC(N)=O)C(N)=O)(C3)NC(=O)[C@H](CC(C)C)NC(=O)[C@H](Cc3ccccc3)NC(=O)[C@H](C)NC(=O)[C@H](C)NC(=O)[C@H](CNCC(=O)O)NC(=O)[C@H](CC(=O)O)NC1=O)NC(=O)[C@H](CC(C)(C)C)NC(=O)[C@H](CC(=O)O)NC2=O (stereo partly drawn) [I-1731, Ac-PL3-Asp-Npg-B5-Asp-GA-Ala-Ala-Phe-Leu-PyrS2-3Thi-BztA-Gln-NH2]",IC50,[1],25 nM
same,IC50,[2],29500 nM
"CCCC[C@@H]1NC(=O)[C@H](Cc2ccccc2)NC(=O)[C@H](C)NC(=O)[C@H](C)NC(=O)[C@H](CC(=O)O)NC(=O)[C@H](CC(=O)O)NC(=O)C2(CCCC=CCCCOC(=O)N3CC[C@@](C(=O)N[C@@H](Cc4ccccc4)C(=O)N[C@@H](Cc4csc5ccccc45)C(=O)N[C@@H](CCC(N)=O)C(N)=O)(C3)NC1=O)CCCC=CC[C@]1(CCCN1C(C)=O)C(=O)N[C@@H](CC(=O)O)C(=O)N[C@@H](CC(C)C)C(=O)N2 (stereo partly drawn) [I-1404, Ac-PL3-Asp-Leu-B5-Asp-Asp-Ala-Ala-Phe-nLeu-PyrS2-Phe-BztA-Gln-NH2]",IC50,[1],113 nM
same,IC50,[2],36800 nM
"CC(=O)N1CCC[C@]12CC=CCCCC1(CCCC=CCCCOC(=O)N3CC[C@@](C(=O)N[C@@H](Cc4ccsc4)C(=O)N[C@@H](Cc4ccc(C)c(C)c4)C(=O)N[C@@H](CCC(N)=O)C(N)=O)(C3)NC(=O)[C@H](CC(C)C)NC(=O)[C@H](Cc3ccccc3)NC(=O)[C@H](C)NC(=O)[C@H](C)NC(=O)[C@H](Cc3cccc(C(=O)O)c3)NC(=O)[C@H](CC(=O)O)NC1=O)NC(=O)[C@H](CC(C)(C)C)NC(=O)[C@H](CC(=O)O)NC2=O (stereo partly drawn) [I-2291, Ac-PL3-Asp-Npg-B5-Asp-3COOHF-Ala-Ala-Phe-Leu-PyrS2-3Thi-34MeF-Gln-NH2]",IC50,[1],5 nM
same,IC50,[2],4900 nM
"CC(=O)N1CCC[C@]12CC=CCCCC1(CCCC=CCCCOC(=O)N3CC[C@@](C(=O)N[C@@H](Cc4ccccc4C(F)(F)F)C(=O)N[C@@H](Cc4csc5ccccc45)C(=O)N[C@@H](C)C(N)=O)(C3)NC(=O)[C@H](CC(C)C)NC(=O)[C@H](Cc3ccccc3)NC(=O)[C@H](C)NC(=O)[C@H](CCC(N)=O)NC(=O)[C@H](Cn3cc(CC(C)(C)C(=O)O)nn3)NC(=O)[C@H](CC(=O)O)NC1=O)NC(=O)[C@H](CC(C)(C)C)NC(=O)[C@H](CC(=O)O)NC2=O (stereo partly drawn) [I-2368, Ac-PL3-Asp-Npg-B5-Asp-[CH2CMe2CO2H]TriAzDap-Gln-Ala-Phe-Leu-PyrS2-2F3MeF-BztA-Ala-NH2]",IC50,[1],5 nM
same,IC50,[2],5000 nM
